Test results taken from PubChem BioAssay AID1963861 (Molecular Pharmacology Branch, DTP, NCI, 2024).

Test system: 885724-159-R-J1-PDC KRAS PDC multicell spheroid viability
Assay: Anticancer human tumor 885724-159-R-J1-PDC patient-derived pancreatic adenocarcinoma cell line growth inhibition [KRAS2]
Settings: for IC50: curve of first compound; for viability, T/C: stronger effect = lower value
Source text: Multicellular complex tumor spheroid response to RAS pathway inhibitors in combination with a targeted agents in patient-derived cell lines with oncogenic KRAS variants from multiple cancer types
A high-throughput screen of multi-cell type tumor spheroids was designed to identify active combinations of targeted small molecules and KRAS pathway inhibitors. Complex spheroids include a stromal component modeled by human endothelial cells (HUVEC) and fibroblasts modeled by human mesenchymal stem cells (MSCs). The concentration ranges selected for each drug and investigational agent were based upon clinically achievable concentrations if the clinical Cmax of the agent was known.
Compounds. The drugs and investigational agents: BI-3406 (NSC825286), BAY-293 (NSC824723), batoprotafib (TNO155; NSC825523), sotorasib (AMG 510; NSC818433), MRTX1257 (NSC819558), elimusertib (BAY 1895344; NSC800525), molibresib (GSK525762; NSC774829), temuterkib (LY3214996; NSC803410), venetoclax (NSC766270), alisertib (NSC759677), olaparib (NSC753686), talazoparib (NSC767125), erdafitinib (NSC781556), ipatasertib (NSC767898), cabozantinib (NSC761068), nintedanib (NSC756659), abemaciclib (NSC768073), docetaxel (NSC628503), trametinib (NSC758246), and sapanisertib (NSC764658) were obtained from the National Cancer Institute (NCI) Developmental Therapeutics Program Chemical Repository. The FDA-approved anticancer drug set is available from the Developmental Therapeutics Program. […] The stock solutions were prepared in dimethyl sulfoxide (DMSO, Sigma-Aldrich, St. Louis, MO, cat. D2650) at 800-fold the tested concentration and stored at -70 degrees C prior to their use. All drugs and investigational agents were tested over a range starting from a high concentration at or near the clinical Cmax and decreasing in half-log increments. If the clinical Cmax for an agent had not been determined, the highest concentration tested was 10 microM.
Cell Culture. All cells were maintained in an incubator at 37 degrees C and 5% CO2 with 95% humidity. The PDC lines were cultured according to standard operating procedures established by the NCI PDMR (https://pdmr.cancer.gov/sops/default.htm). Briefly, all PDCs were thawed and cultured in Matrigel-coated flasks prepared with a working solution of 1X Ham's F-12 nutrient mix, without supplementation (Invitrogen, Waltham, MA, cat. 11765054), 100 U/mL penicillin-streptomycin (Invitrogen, cat. 15140122), and 2.5% Matrigel (Corning Inc., Corning, NY, cat. 354248) for the first three passages. All PDCs were cultured in complete DMEM/F-12 media containing advanced DMEM/F-12 (Invitrogen, cat. 12634028), 4.9% defined fetal bovine serum, heat inactivated (HyClone Laboratories Inc., Logan, UT, cat. SH30070.03HI), 389 ng/mL hydrocortisone (Sigma-Aldrich, cat. H4001), 9.7 ng/mL human EGF recombinant protein (Invitrogen, cat. PHG0313), 23.4 microg/mL adenine (Sigma-Aldrich, cat. A2786), 97.3 U/mL penicillin-streptomycin (Invitrogen, cat. 15140122), 1.9 mM L-glutamine (Invitrogen, cat. 25030081), and 9.7 microM Y-27632 dihydrochloride (Tocris Bioscience, Bristol, United Kingdom, cat. 1254). The PDCs were cultured in complete DMEM/F12 media without 9.7 microM Y-27632 dihydrochloride for at least two passages prior to the screen. The established cell line HOP-62 was cultured in RPMI 1640 medium, HEPES (Invitrogen, cat. 22400105) with 10% defined fetal bovine serum (HyClone Laboratories Inc., cat. SH30070.03) and 2 mM L-glutamine (Invitrogen, cat. 25030081). The pooled donor HUVEC were cultured in endothelial cell growth medium 2 (PromoCell, Heidelberg, Germany, cat. C-22011) and the hMSC were cultured in mesenchymal stem cell growth medium 2 (PromoCell, cat. C-28009). For all experiments, HUVEC and hMSC were used at passages </=5, while the malignant cell lines were used at passages </=15. […]

[1] = second compound 0.1 µM, first compound 0.0316 µM
[2] = second compound 0.316 µM, first compound 0.0316 µM
[3] = second compound 1 µM, first compound 0.0316 µM
[4] = second compound 3.16 µM, first compound 0.0316 µM
[5] = second compound 10 µM, first compound 0.0316 µM
[6] = second compound 0.1 µM, first compound 0.1 µM
[7] = second compound 0.1 µM, first compound 0.316 µM
[8] = second compound 0.1 µM, first compound 1 µM
[9] = second compound 0.1 µM, first compound 3.16 µM
[10] = second compound 0.1 µM, first compound 10 µM
[11] = second compound 0.316 µM, first compound 0.1 µM
[12] = second compound 0.316 µM, first compound 0.316 µM
[13] = second compound 0.316 µM, first compound 1 µM
[14] = second compound 0.316 µM, first compound 3.16 µM
[15] = second compound 0.316 µM, first compound 10 µM
[16] = second compound 1 µM, first compound 0.1 µM
[17] = second compound 1 µM, first compound 0.316 µM
[18] = second compound 1 µM, first compound 1 µM
[19] = second compound 1 µM, first compound 3.16 µM
[20] = second compound 1 µM, first compound 10 µM
[21] = second compound 3.16 µM, first compound 0.1 µM
[22] = second compound 3.16 µM, first compound 0.316 µM
[23] = second compound 3.16 µM, first compound 1 µM
[24] = second compound 3.16 µM, first compound 3.16 µM
[25] = second compound 3.16 µM, first compound 10 µM
[26] = second compound 10 µM, first compound 0.1 µM
[27] = second compound 10 µM, first compound 0.316 µM
[28] = second compound 10 µM, first compound 1 µM
[29] = second compound 10 µM, first compound 3.16 µM
[30] = second compound 10 µM, first compound 10 µM
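Also: spheroids exposed to agents for 7 days before readout.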

## CC(=O)Nc1cccc(-n2c(=O)n(C3CC3)c(=O)c3c(Nc4ccc(I)cc4F)n(C)c(=O)c(C)c32)c1 + C=CC(=O)N1CCN(c2nc(=O)n(-c3c(C)ccnc3C(C)C)c3nc(-c4c(O)cccc4F)c(F)cc23)C(C)C1
Second compound 0.1 µM
  IC50: 1.74 nM
Second compound 0.316 µM
  IC50: 1.57 nM
Second compound 1 µM
  IC50: 2 nM
Second compound 3.16 µM
  IC50: 1.36 nM
Second compound 10 µM
  IC50: 0.33 nM
Second compound 0.1 µM, first compound 0.0001 µM
  viability, T/C: 102%
Second compound 0.1 µM, first compound 0.000316 µM
  viability, T/C: 81.2%
Second compound 0.1 µM, first compound 0.001 µM
  viability, T/C: 55.9%
Second compound 0.1 µM, first compound 0.00316 µM
  viability, T/C: 42.2%
Second compound 0.1 µM, first compound 0.01 µM
  viability, T/C: 30%
[1]
  viability, T/C: 21.3%
Second compound 0.316 µM, first compound 0.0001 µM
  viability, T/C: 114%
Second compound 0.316 µM, first compound 0.000316 µM
  viability, T/C: 83%
Second compound 0.316 µM, first compound 0.001 µM
  viability, T/C: 54.6%
Second compound 0.316 µM, first compound 0.00316 µM
  viability, T/C: 40.1%
Second compound 0.316 µM, first compound 0.01 µM
  viability, T/C: 30.6%
[2]
  viability, T/C: 21.4%
Second compound 1 µM, first compound 0.0001 µM
  viability, T/C: 92.5%
Second compound 1 µM, first compound 0.000316 µM
  viability, T/C: 84.3%
Second compound 1 µM, first compound 0.001 µM
  viability, T/C: 61.2%
Second compound 1 µM, first compound 0.00316 µM
  viability, T/C: 41.7%
Second compound 1 µM, first compound 0.01 µM
  viability, T/C: 31.9%
[3]
  viability, T/C: 23.8%
Second compound 3.16 µM, first compound 0.0001 µM
  viability, T/C: 84.6%
Second compound 3.16 µM, first compound 0.000316 µM
  viability, T/C: 81.5%
Second compound 3.16 µM, first compound 0.001 µM
  viability, T/C: 52.4%
Second compound 3.16 µM, first compound 0.00316 µM
  viability, T/C: 38.7%
Second compound 3.16 µM, first compound 0.01 µM
  viability, T/C: 30.1%
[4]
  viability, T/C: 26.6%
Second compound 10 µM, first compound 0.0001 µM
  viability, T/C: 61.6%
Second compound 10 µM, first compound 0.000316 µM
  viability, T/C: 51.3%
Second compound 10 µM, first compound 0.001 µM
  viability, T/C: 29.3%
Second compound 10 µM, first compound 0.00316 µM
  viability, T/C: 26.4%
Second compound 10 µM, first compound 0.01 µM
  viability, T/C: 23.2%
[5]
  viability, T/C: 18.6%

## COC(=O)c1ccc2c(C(=Nc3ccc(N(C)C(=O)CN4CCN(C)CC4)cc3)c3ccccc3)c(O)[nH]c2c1 + C=CC(=O)N1CCN(c2nc(=O)n(-c3c(C)ccnc3C(C)C)c3nc(-c4c(O)cccc4F)c(F)cc23)C(C)C1
Second compound 0.1 µM
  IC50: 3150 nM
Second compound 0.316 µM
  IC50: 2270 nM
Second compound 1 µM
  IC50: 2070 nM
Second compound 3.16 µM
  IC50: 2110 nM
Second compound 10 µM
  IC50: 1540 nM
[1]
  viability, T/C: 109%
[6]
  viability, T/C: 111%
[7]
  viability, T/C: 102%
[8]
  viability, T/C: 103%
[9]
  viability, T/C: 49.8%
[10]
  viability, T/C: 1.26%
[2]
  viability, T/C: 105%
[11]
  viability, T/C: 109%
[12]
  viability, T/C: 102%
[13]
  viability, T/C: 104%
[14]
  viability, T/C: 28.1%
[15]
  viability, T/C: 0.55%
[3]
  viability, T/C: 113%
[16]
  viability, T/C: 111%
[17]
  viability, T/C: 110%
[18]
  viability, T/C: 98.6%
[19]
  viability, T/C: 21.9%
[20]
  viability, T/C: 0.74%
[4]
  viability, T/C: 106%
[21]
  viability, T/C: 110%
[22]
  viability, T/C: 105%
[23]
  viability, T/C: 95.7%
[24]
  viability, T/C: 25.1%
[25]
  viability, T/C: 0.65%
[5]
  viability, T/C: 89.7%
[26]
  viability, T/C: 70.4%
[27]
  viability, T/C: 79.1%
[28]
  viability, T/C: 69.9%
[29]
  viability, T/C: 17.2%
[30]
  viability, T/C: 0.39%

## COc1cc(Nc2ncc3c(n2)-c2ccc(Cl)cc2C(c2c(F)cccc2OC)=NC3)ccc1C(=O)O + C=CC(=O)N1CCN(c2nc(=O)n(-c3c(C)ccnc3C(C)C)c3nc(-c4c(O)cccc4F)c(F)cc23)C(C)C1
Second compound 0.1 µM
  IC50: > 10000 nM
Second compound 0.316 µM
  IC50: > 10000 nM
Second compound 1 µM
  IC50: > 10000 nM
Second compound 3.16 µM
  IC50: > 10000 nM
Second compound 10 µM
  IC50: > 10000 nM
[1]
  viability, T/C: 99.7%
[6]
  viability, T/C: 100%
[7]
  viability, T/C: 95.9%
[8]
  viability, T/C: 92.7%
[9]
  viability, T/C: 100%
[10]
  viability, T/C: 107%
[2]
  viability, T/C: 94.5%
[11]
  viability, T/C: 92.1%
[12]
  viability, T/C: 92.2%
[13]
  viability, T/C: 96.8%
[14]
  viability, T/C: 98.7%
[15]
  viability, T/C: 106%
[3]
  viability, T/C: 97.8%
[16]
  viability, T/C: 93.5%
[17]
  viability, T/C: 92.2%
[18]
  viability, T/C: 93.9%
[19]
  viability, T/C: 85.6%
[20]
  viability, T/C: 99.7%
[4]
  viability, T/C: 80.9%
[21]
  viability, T/C: 85.5%
[22]
  viability, T/C: 86.1%
[23]
  viability, T/C: 90.6%
[24]
  viability, T/C: 90.9%
[25]
  viability, T/C: 87.4%
[5]
  viability, T/C: 65.4%
[26]
  viability, T/C: 67.4%
[27]
  viability, T/C: 63.6%
[28]
  viability, T/C: 58.2%
[29]
  viability, T/C: 56.5%
[30]
  viability, T/C: 49.8%
